Test results: article PMC5513091, “A novel Alzheimer’s disease drug candidate targeting inflammation and fatty acid metabolism” (Alzheimer's Research & Therapy, 2017)

Key:
[1] = tested on: Primary embryonic day 18 cortical cells; assay: Trophic factor withdrawal assay; format: cell-based; conditions: Cortical neurone; Cortical neuron; cell viability; read-out: Half-maximal effective concentration, Trophic factor withdrawal
Protocol: The various phenotypic screening assays were conducted as previously described. Briefly, HT-22, primary cortical neurons, or MC65 was plated and exposed to the different environmental stresses. Cells were treated with varying concentrations of CAD-31, and half-maximal effective concentration (EC50) was determined on the basis of cell viability.
• An assay that mimics the dramatic loss of neurotrophic support in the old brain is the trophic factor withdrawal assay. Primary embryonic day 18 cortical cells are plated at low density in serum-free medium. At low density, the cells die within 2 days; they can be rescued by combinations of neurotrophic growth factors, but not by one alone ([19] and unpublished data). […] BDNF is a molecule that is also involved in promoting memory and neurogenesis and is reduced in the brain with age and in AD, as well as in other neurological disorders. BDNF has long been considered a drug target for AD [23]. […] A reduction in GSH is a common denominator of old age and essentially all chronic central nervous system (CNS) diseases. J147 and CAD-31 both effectively reduce oxidative stress, with EC50 of 6 nM and 20 nM, respectively. • CAD-31 also prevents loss of energy metabolism that leads to neuron cell death in an in vitro ischemia model. […]

Aβ1–42 = Aβ1–42 (Homo sapiens, UniProt P05067); assay: Thioflavin S Aβ1–42 aggregation assay; format: biochemical; conditions: data not shown
Chain of Aβ1–42 (P05067 672-713 limits assumed): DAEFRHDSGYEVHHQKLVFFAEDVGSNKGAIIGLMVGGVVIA

hERG = hERG (Homo sapiens, UniProt Q12809); assay: hERG assay
Chain of hERG (Q12809 whole entry): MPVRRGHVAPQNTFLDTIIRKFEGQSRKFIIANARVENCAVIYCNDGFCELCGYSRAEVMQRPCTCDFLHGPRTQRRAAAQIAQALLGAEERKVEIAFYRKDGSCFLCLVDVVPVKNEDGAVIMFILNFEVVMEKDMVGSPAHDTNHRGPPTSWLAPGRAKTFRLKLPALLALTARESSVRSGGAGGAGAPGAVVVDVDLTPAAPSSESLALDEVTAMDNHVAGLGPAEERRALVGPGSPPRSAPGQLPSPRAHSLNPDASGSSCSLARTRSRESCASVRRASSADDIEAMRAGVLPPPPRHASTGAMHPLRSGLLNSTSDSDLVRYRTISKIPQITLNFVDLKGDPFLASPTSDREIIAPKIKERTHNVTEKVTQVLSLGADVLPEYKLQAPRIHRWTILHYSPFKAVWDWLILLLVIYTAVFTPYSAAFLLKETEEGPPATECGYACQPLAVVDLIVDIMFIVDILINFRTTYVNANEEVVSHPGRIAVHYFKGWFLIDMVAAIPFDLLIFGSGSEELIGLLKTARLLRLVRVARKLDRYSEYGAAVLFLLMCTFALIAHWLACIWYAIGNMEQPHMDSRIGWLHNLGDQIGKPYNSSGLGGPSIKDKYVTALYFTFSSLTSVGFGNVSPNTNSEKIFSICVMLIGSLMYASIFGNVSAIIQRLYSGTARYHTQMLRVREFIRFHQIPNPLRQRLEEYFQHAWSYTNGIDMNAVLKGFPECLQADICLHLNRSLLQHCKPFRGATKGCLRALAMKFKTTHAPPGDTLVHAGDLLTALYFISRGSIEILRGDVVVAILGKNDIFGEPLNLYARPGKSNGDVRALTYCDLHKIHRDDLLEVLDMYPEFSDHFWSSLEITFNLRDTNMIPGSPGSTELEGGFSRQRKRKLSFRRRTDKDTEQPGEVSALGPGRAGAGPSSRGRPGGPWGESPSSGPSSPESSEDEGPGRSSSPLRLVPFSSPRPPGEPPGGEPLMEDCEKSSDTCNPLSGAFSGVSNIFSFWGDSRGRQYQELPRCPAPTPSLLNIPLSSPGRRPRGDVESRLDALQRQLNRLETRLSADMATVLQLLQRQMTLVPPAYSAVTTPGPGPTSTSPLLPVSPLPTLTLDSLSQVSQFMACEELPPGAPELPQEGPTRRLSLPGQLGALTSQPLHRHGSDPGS

CYP 2Cb = CYP 2Cb (Homo sapiens, UniProt P11712); assay: CYP inhibition; format: in vitro ADME
Chain of CYP 2Cb (P11712 whole entry): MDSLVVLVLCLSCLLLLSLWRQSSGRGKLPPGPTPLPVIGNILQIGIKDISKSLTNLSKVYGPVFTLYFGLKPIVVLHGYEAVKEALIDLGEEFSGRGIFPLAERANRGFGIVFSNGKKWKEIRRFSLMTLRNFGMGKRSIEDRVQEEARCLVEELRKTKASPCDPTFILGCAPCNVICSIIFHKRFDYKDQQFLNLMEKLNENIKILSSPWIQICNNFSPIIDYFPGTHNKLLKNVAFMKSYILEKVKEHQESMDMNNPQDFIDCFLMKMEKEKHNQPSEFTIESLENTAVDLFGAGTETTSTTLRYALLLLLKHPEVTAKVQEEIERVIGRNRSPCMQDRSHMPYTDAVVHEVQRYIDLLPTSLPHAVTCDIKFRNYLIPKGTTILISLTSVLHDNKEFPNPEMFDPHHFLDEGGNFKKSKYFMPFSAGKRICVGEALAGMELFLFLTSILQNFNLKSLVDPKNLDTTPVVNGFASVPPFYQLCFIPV

[2] = tested on: APPswe/PS1∆E9 transgenic mice; assay: Two-day water maze; format: in vivo; conditions: AD mice fed 200 ppm in chow for 3 months from 10 months of age; day 2
Protocol: The APPswe/PS1∆E9-transgenic mice were characterized previously. Line 85 mice carry two transgenes, the mouse/human chimeric APPswe, linked to Swedish familial AD and human PS1∆E9. At 10 months of age, female transgenic mice were fed a defined diet (Harlan Teklad; Envigo, Indianapolis, IN, USA) with and without CAD-31 (200 ppm, approximately 10 mg/kg/day). Treatment continued for 3 months, followed by behavior testing and tissue harvesting.
Spatial memory was determined using the 2-day water maze with 13-month-old APPswe/PS1∆E9 transgenic mice fed CAD-31 for the previous 3 months. The protocol was adapted from a publication by Gulinello and colleagues. The goal platform was positioned 45 cm from the outside wall in the northwest quadrant of the maze. Day 1 involved training the mice (n = 10 per group) to find the platform using cues located around the pool within a 180-second time frame. This training involved a series of visible platform trials where mice were tracked using EthoVision software (Noldus Information Technology, Leesburg, VA, USA). […] The time it took each mouse to find the hidden platform was measured as escape latency. All trials were recorded using the EthoVision software, and statistics were computed using InStat software (GraphPad Software, La Jolla, CA, USA) by an individual blinded to the experiment.

AMPK phosphorylation = assay: Immunoblotting of hippocampal tissue; format: in vivo; conditions: hippocampus, WT and old AD mice, 200 ppm in chow 3 months
Protocol: (§1) Hippocampal tissue samples were homogenized in 10 volumes of radioimmunoprecipitation assay (RIPA) lysis buffer (50 mM Tris, pH 7.5, 150 mM NaCl, 0.1% SDS, 0.5% deoxycholate, and 1% Nonidet P-40) containing a cocktail of protease and phosphatase inhibitors [[…] each of pepstatin A, aprotinin, phosphoramidon, and leupeptin; 0.5 mM 4-(2-aminoethyl)benzenesulfonyl fluoride hydrochloride; 1 mM ethylene glycol-bis(β-aminoethyl ether)-N,N,N′,N′-tetraacetic acid; 5 mM fenvalerate; and 5 mM cantharidin]. Samples were sonicated (2 × 10 seconds) and centrifuged first at 10,000 × g for 10 minutes and then at 100,000 × g for 60 minutes at 4 °C. The 100,000 × g pellet was taken up either in 6 M guanidine for Aβ analysis or in SDS sample buffer for Western blot analysis. Protein concentrations in the cell extracts were determined using a bicinchoninic acid protein assay (Pierce Biotechnology, Rockford, IL, USA). Equal amounts of protein were solubilized in 2.5× SDS sample buffer, separated on 12% SDS-polyacrylamide gels, transferred to Immobilon-P (EMD Millipore, Billerica, MA, USA), and immunoblotted with the antibodies indicated in the Materials subsection above. For Western blot experiments, protein levels were normalized to actin levels. An unpaired t test was performed to compare two groups at a single time point. When comparing multiple groups, one-way analysis of variance (ANOVA) followed by Tukey’s post hoc test was used. All statistical analysis was conducted using GraphPad InStat software.

Arc-1 = assay: Immunoblotting of hippocampal tissue; format: in vivo; conditions: hippocampus, AD mice fed CAD-31 vs AD mice not fed
Protocol: as §1

Drebrin = assay: Immunoblotting of hippocampal tissue; format: in vivo; conditions: hippocampus, AD mice fed CAD-31 vs AD mice not fed
Protocol: as §1

OSCP = assay: Immunoblotting of hippocampal tissue; format: in vivo; conditions: hippocampus, control and AD mice
Protocol: as §1

RAGE = assay: Immunoblotting of hippocampal tissue; format: in vivo; conditions: hippocampus, AD mice
Protocol: as §1

VCAM = assay: Immunoblotting of hippocampal tissue; format: in vivo; conditions: hippocampus, AD mice
Protocol: as §1

clusterin = assay: Immunoblotting of hippocampal tissue; format: in vivo; conditions: hippocampus, AD mice
Protocol: as §1

eIF2α phosphorylation = assay: Immunoblotting of hippocampal tissue; format: in vivo; conditions: hippocampus, WT and old AD mice, 200 ppm in chow 3 months
Protocol: as §1

ACC-1 = assay: Immunoblotting of hippocampal tissue; format: in vivo, mice; conditions: hippocampus
Protocol: as §1

[3] = tested on: autophagy markers LC3 and P62; assay: Immunoblotting of hippocampal tissue; format: in vivo, mice; conditions: data not shown
Protocol: as §1

APPswe/PS1ΔE9 mice = tested on: APPswe/PS1ΔE9 mice; design: method as in PMID 27149904; conditions: old APPswe/PS1ΔE9 mice fed from an early age, preventive strategy; cited from earlier work

With Cc1ccc(N(/N=C/c2cccc(OC(F)(F)F)c2)C(=O)C(F)(F)F)c(C)c1 [CAD-31] as the compound, how does the EC50 [1] read?
Its EC50 is 0.018 µM.

And the “binding to and direct inhibition of Aβ1–42 aggregation” value (Aβ1–42)?
Its value is “Neither J147 nor CAD-31 binds to and directly inhibits Aβ1–42 aggregation”.

And the “activity in the hERG assay” value (hERG; 10 μM)?
The value was “showed no sign of acute toxicity or activity”.

And the EC50 at 10 µM (hERG; human)?
The EC50 at 10 µM was greater than 10 µM.

What about the EC50 at 10 µM (Ames test) of the same compound?
Its EC50 at 10 µM is greater than 10 µM.

What about the “activity in the Ames test” value (Ames test; 10 μM) of the same compound?
Its value is “showed no sign of acute toxicity or activity”.

What about the EC50 at 10 µM (CYP 2Cb) of the same compound?
The EC50 at 10 µM was greater than 10 µM.

And the “escape latency, hidden platform trial T1” value [2]?
Its value is “significantly reduces the escape latency relative to AD mice to control levels”.

What about the “AMPK activation by phosphorylation (ratio to total AMPK)” value (AMPK phosphorylation) of the same compound?
The value was “enhanced”.

And the Arc-1 expression (Arc-1)?
The Arc-1 expression was “increased expression of both proteins”.

And the Drebrin expression (Drebrin)?
The Drebrin expression was “increased expression of both proteins”.

And the OSCP expression (OSCP)?
Its OSCP expression is “increased expression of OSCP in both control and AD mice”.

What about the RAGE expression (RAGE) of the same compound?
Its RAGE expression is “reduced the expression”.

And the VCAM expression (VCAM)?
Its VCAM expression is “reduced the expression”.

And the clusterin expression (clusterin)?
Its clusterin expression is “reduced the expression”.

What about the “eIF2α phosphorylation (ratio to total eIF2α)” value (eIF2α phosphorylation) of the same compound?
Its value is “stimulates eIF2α phosphorylation in both WT and old AD mice”.

And the “phosphorylation of ACC-1” value (ACC-1; AD mice)?
The value was “greatly increases the depressed level of phosphorylation in AD mice”.

What about the “total amount of ACC-1 protein” value (ACC-1; AD mice) of the same compound?
Its value is “not significantly reduced”.

And the “phosphorylation of ACC-1” value (ACC-1; WT mice)?
Its value is “decreases the phosphorylation of ACC-1 in WT mice”.

And the “expression of the autophagy markers LC3 and P62” value [3]?
The value was “did not, however, alter the expression”.

What about the “division of NPCs in the subventricular zone” value (APPswe/PS1ΔE9 mice) of the same compound?
Its value is “stimulates the division of NPCs in the subventricular zone”.
